Experimental data as given in publication PMC8343220, “The selectivity of α‐adrenoceptor agonists for the human α1A, α1B, and α1D‐adrenoceptors” (Pharmacology Research & Perspectives, 2021).
Read-outs that look alike come from different tables or passages of the source.

Columns and labels:
[1] = tested on: parental CHO cell line without any transfected receptors; experiment: Intracellular calcium mobilization, parent CHO cells without transfected receptors; assay type: cell-based, Chinese hamster
human α1B‐adrenoceptor [2] = biological target: T1, human α1B‐adrenoceptor (Homo sapiens, UniProt P35368); experiment: ^3H‐cAMP accumulation in the presence of 10 μM forskolin, CHO‐α1B cells; assay type: cell-based; conditions: CHO‐α1B cells; for cAMP accumulation (in presence of forskolin) Fold increase: fold increase of the forskolin response; for EC50: read-out: cAMP accumulation (in presence of forskolin) Log EC50 (converted)
T1 construct: expressed in transfected cells; host or cells: CHO-K1
T1 sequence (P35368 1-520): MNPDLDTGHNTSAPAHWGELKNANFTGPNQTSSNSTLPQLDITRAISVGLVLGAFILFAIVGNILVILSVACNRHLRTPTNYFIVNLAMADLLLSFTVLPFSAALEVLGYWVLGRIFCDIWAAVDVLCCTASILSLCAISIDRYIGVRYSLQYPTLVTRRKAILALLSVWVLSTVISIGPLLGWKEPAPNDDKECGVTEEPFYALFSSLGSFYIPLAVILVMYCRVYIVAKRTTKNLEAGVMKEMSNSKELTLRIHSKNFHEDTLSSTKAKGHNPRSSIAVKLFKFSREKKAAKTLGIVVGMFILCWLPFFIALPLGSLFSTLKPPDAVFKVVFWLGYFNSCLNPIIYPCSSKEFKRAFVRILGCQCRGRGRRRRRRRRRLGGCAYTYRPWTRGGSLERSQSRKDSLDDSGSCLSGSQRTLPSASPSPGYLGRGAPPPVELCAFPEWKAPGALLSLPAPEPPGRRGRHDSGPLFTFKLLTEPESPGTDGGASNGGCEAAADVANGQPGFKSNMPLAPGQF

[3] = tested on: parental CHO cell line without any transfected receptors; experiment: Forskolin‐stimulated cAMP accumulation, parent CHO cells without transfected receptors; assay type: cell-based, Chinese hamster; conditions: CHO cells without transfected receptors; in presence of forskolin
[4] = tested on: parental CHO cell line without any transfected receptors; experiment: ERK1/2‐phosphorylation, parent CHO cells without transfected receptors; assay type: cell-based, Chinese hamster
human α1A‐adrenoceptor [5] = biological target: T2, human α1A‐adrenoceptor (Homo sapiens, UniProt P35348); experiment: Intracellular free calcium mobilization, CHO‐α1A cells; assay type: cell-based; conditions: for EC50: CHO‐α1A cells, given as log EC50 (negative), read-out: Intracellular calcium release Log EC50 (converted)
T2 construct: expressed in transfected cells; host or cells: CHO-K1
T2 sequence (P35348 1-466): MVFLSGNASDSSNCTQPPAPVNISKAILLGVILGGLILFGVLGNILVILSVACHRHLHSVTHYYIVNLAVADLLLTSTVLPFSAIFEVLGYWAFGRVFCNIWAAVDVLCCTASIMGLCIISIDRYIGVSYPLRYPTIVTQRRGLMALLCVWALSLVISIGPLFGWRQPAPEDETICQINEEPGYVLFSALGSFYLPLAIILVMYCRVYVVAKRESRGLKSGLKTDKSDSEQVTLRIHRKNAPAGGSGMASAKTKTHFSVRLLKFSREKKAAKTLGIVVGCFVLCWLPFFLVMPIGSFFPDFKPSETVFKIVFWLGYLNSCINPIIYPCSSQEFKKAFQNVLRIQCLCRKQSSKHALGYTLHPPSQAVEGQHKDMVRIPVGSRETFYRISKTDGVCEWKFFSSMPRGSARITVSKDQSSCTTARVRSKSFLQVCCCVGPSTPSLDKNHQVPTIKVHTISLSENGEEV

[6] = biological target: T3, human α1D‐adrenoceptor (full length) (Homo sapiens, UniProt P25100); experiment: Intracellular free calcium mobilization, CHO‐α1D cells; assay type: cell-based
T3 construct: human α1D‐adrenoceptor (full length) were used; expressed in transfected cells; host or cells: CHO-K1
T3 sequence (P25100 1-572): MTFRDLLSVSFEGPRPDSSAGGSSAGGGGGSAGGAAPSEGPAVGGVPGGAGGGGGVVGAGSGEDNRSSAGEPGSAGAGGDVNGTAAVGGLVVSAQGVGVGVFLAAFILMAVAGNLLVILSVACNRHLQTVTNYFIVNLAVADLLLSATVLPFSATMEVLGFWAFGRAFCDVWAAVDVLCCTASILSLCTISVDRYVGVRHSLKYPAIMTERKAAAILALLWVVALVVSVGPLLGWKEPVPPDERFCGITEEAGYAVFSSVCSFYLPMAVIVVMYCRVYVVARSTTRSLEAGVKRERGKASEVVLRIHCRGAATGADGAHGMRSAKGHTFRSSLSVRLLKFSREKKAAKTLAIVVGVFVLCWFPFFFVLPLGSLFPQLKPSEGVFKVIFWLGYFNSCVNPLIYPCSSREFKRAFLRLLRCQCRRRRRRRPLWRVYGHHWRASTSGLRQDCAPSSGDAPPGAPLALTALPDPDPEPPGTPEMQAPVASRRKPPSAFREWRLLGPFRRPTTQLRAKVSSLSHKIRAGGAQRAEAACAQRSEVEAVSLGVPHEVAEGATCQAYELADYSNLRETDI

human α1B‐adrenoceptor [7] = biological target: T1, human α1B‐adrenoceptor; experiment: ^3H‐cAMP accumulation, CHO‐α1B cells; assay type: cell-based; conditions: CHO‐α1B cells; for cAMP accumulation % forskolin: % forskolin maximum response; for EC50: read-out: cAMP accumulation Log EC50 (converted)
human α1A‐adrenoceptor [8] = biological target: T2, human α1A‐adrenoceptor; experiment: ERK1/2‐phosphorylation (Surefire Alphascreen), CHO‐α1A cells; assay type: cell-based; conditions: for EC50: CHO‐α1A cells, 2–4 min, ^a bi‐phasic: initial stimulatory part, ^b also active in parent CHO cells, read-out: ERK1/2‐phosphorylation Log EC50 (converted)
human α1A‐adrenoceptor [9] = biological target: T2, human α1A‐adrenoceptor; experiment: ^3H‐cAMP accumulation, CHO‐α1A cells; assay type: cell-based; conditions: CHO‐α1A cells; for cAMP accumulation % forskolin: % of 10 µM forskolin response
human α1B‐adrenoceptor [10] = biological target: T1, human α1B‐adrenoceptor; experiment: ERK1/2‐phosphorylation (Surefire Alphascreen), CHO‐α1B cells; assay type: cell-based; conditions: for EC50: CHO‐α1B cells, for bi‐phasic responses the initial stimulatory part, read-out: ERK1/2‐phosphorylation Log EC50 (converted)
[11] = biological target: T3, human α1D‐adrenoceptor (full length); experiment: ^3H‐prazosin whole‐cell radioligand binding, CHO‐α1D cells; conditions: for Kd: CHO‐α1D cells
human α1A‐adrenoceptor [12] = biological target: T2, human α1A‐adrenoceptor; experiment: ^3H‐prazosin whole‐cell radioligand binding, CHO‐α1A cells; conditions: for Kd: Log KD α1A, ^3H‐prazosin whole cell binding, CHO‐α1A cells, given as log KD (negative), mean ± SEM
[13] = biological target: T3, human α1D‐adrenoceptor (full length); experiment: ERK1/2‐phosphorylation (Surefire Alphascreen), CHO‐α1D cells; assay type: cell-based; conditions: for ERK1/2‐phosphorylation Log EC50: CHO‐α1D cells, log values given negative
human α1B‐adrenoceptor [14] = biological target: T1, human α1B‐adrenoceptor; experiment: Intracellular free calcium mobilization, CHO‐α1B cells; assay type: cell-based; conditions: for EC50: CHO‐α1B cells, given as log EC50 (negative numbers), read-out: Intracellular calcium release Log EC50 (converted)
human α1A‐adrenoceptor [15] = biological target: T2, human α1A‐adrenoceptor; experiment: ^3H‐cAMP accumulation in the presence of 10 μM forskolin, CHO‐α1A cells; assay type: cell-based; conditions: CHO‐α1A cells; for EC50: read-out: cAMP accumulation (in presence of forskolin) Log EC50 (converted); for cAMP accumulation (in presence of forskolin) Fold increase: fold increase of the forskolin response
human α1B‐adrenoceptor [16] = biological target: T1, human α1B‐adrenoceptor; experiment: ^3H‐prazosin whole‐cell radioligand binding, CHO‐α1B cells; conditions: for Kd: CHO‐α1B cells
[17] = CHO‐α1D cells, log values given negative
[18] = 3H‐prazosin binding Log KD, whole‐cell binding (from Table 1), log values given negative
[19] = Log KD α1D, ^3H‐prazosin whole cell binding, given as log KD (negative), mean ± SEM, 'early plateau' = specific binding not fully inhibited
[20] = Log KD α1B, ^3H‐prazosin whole cell binding, given as log KD (negative), mean ± SEM
[21] = Log KD, ^3H‐prazosin binding, whole‐cell binding (from Table 1), given as log KD (negative numbers)

Compound | cAMP accumulation (in presence of forskolin) Fold increase (human α1B‐adrenoceptor [2]) [fold] | EC50 (human α1B‐adrenoceptor [2]; in presence of forskolin) [nM] | cAMP accumulation (in presence of forskolin) Log EC50 [3] | Intracellular calcium release % ionomycin (human α1A‐adrenoceptor [5]) [%] | Log efficacy ratio KD /EC50 (human α1A‐adrenoceptor [5]) | EC50 (human α1A‐adrenoceptor [5]) [nM] | Intracellular calcium release % ionomycin [6] | Intracellular calcium release Log EC50 [6, 17] | cAMP accumulation % forskolin (human α1B‐adrenoceptor [7]) [%] | EC50 (human α1B‐adrenoceptor [7]) [nM] | ERK1/2‐phosphorylation % PDBu (human α1A‐adrenoceptor [8]) [%] | EC50 (human α1A‐adrenoceptor [8]) [nM] | ERK1/2‐phosphorylation % PDBu (human α1B‐adrenoceptor [10]) [%] | EC50 (human α1B‐adrenoceptor [10]) [nM] | Affinity selectivity ratio α1B vs α1D [11] [fold] | Kd [11, 18] [nM] | Kd [11, 19] [nM] | Affinity selectivity ratio α1A vs α1B (human α1A‐adrenoceptor [12]) [fold] | ERK1/2‐phosphorylation % PDBu [13] | Intracellular calcium release % ionomycin (human α1B‐adrenoceptor [14]) [%] | other results
C[C@H](CCC(=O)O)C[C@H](C)C[C@H](C)C(=O)/C=C(\O)[C@H](C)C[C@H](C)C/C=C/[C@@H](C)[C@@H](O)[C@@H](C)[C@@H](O)C[C@@H]1CC[C@@](C)([C@H]2CC[C@@](C)([C@@H](C)O)O2)O1 [Ionomycin] |  |  |  |  |  |  |  |  |  |  |  |  |  |  |  |  |  |  |  |  | Calcium response fold over basal [1]: 27.2 ± 1.2 fold over basal
Brc1c(NC2=NCCN2)ccc2nccnc12 [UK14304] | 1.50 ± 0.05 | 97.7 | No response | 45.6 ± 1.6 | 1.64 | 67.6 | No response | No response | 2.7 ± 0.1 | 95.5 | 88.7 ± 4.3 | 186 | 33.8 ± 5.0 | 316 | 3.0 | 4370 | 4370 | 4.4 | No response | 27.5 ± 1.8 | ERK1/2-phosphorylation % PDBu ([4]; CHO cells without transfected receptors, maximal response as % of PDBu (10μM) response, mean ± s.e.m.): No response; ERK1/2-phosphorylation Log EC50 ([4]; CHO cells without transfected receptors, mean ± s.e.m.): No response; cAMP accumulation % forskolin at 10 μM (human α1A‐adrenoceptor [9]; response at 10 μM ligand, no EC50 obtained): 12.0 ± 1.1%; Affinity selectivity ratio α1A vs α1D (human α1A‐adrenoceptor [12]): 1.5 fold; Kd (human α1A‐adrenoceptor [12]): 2950 nM; ERK1/2‐phosphorylation Log EC50 [13]: No response; Log efficacy ratio KD /EC50 (human α1B‐adrenoceptor [14]): 2.26; EC50 (human α1B‐adrenoceptor [14]): 70.8 nM; EC50 (human α1A‐adrenoceptor [15]; 10 μM forskolin): 1380 nM; cAMP accumulation (in presence of forskolin) Fold increase (human α1A‐adrenoceptor [15]): 1.95 ± 0.09 fold; Kd (human α1B‐adrenoceptor [16]; [20]): 12900 nM; Kd (human α1B‐adrenoceptor [16]; [21]): 12900 nM
Brc1c(NC2=NCCN2)ccc2nccnc12 [Brimonidine] | 1.58 ± 0.07 | 105 | No response | 47.8 ± 4.1 | 1.57 | 117 | No response | No response | 4.5 ± 1.6 | 129 | 86.4 ± 3.6 | 363 | 41.2 ± 6.2 | 724 | 3.9 | 5370 | 5370 | 4.8 | No response | 35.8 ± 2.4 | Emax at 100 µM ([4]; Cricetulus griseus, CHO, read-out: ERK1/2-phosphorylation % PDBu at 100μM): 2.3 ± 1.7%; EC50 (human α1A‐adrenoceptor [9]; 5 h, read-out: cAMP accumulation Log EC50 (converted)): 5750 nM; cAMP accumulation % forskolin (human α1A‐adrenoceptor [9]): 17.8 ± 1.7%; Affinity selectivity ratio α1A vs α1D (human α1A‐adrenoceptor [12]): 1.2 fold; Kd (human α1A‐adrenoceptor [12]): 4370 nM; ERK1/2‐phosphorylation Log EC50 [13]: No response; Log efficacy ratio KD /EC50 (human α1B‐adrenoceptor [14]): 2.33; EC50 (human α1B‐adrenoceptor [14]): 97.7 nM; EC50 (human α1A‐adrenoceptor [15]; 10 μM forskolin): 1580 nM; cAMP accumulation (in presence of forskolin) Fold increase (human α1A‐adrenoceptor [15]): 1.96 ± 0.05 fold; Kd (human α1B‐adrenoceptor [16]; [20]): 20900 nM; Kd (human α1B‐adrenoceptor [16]; [21]): 20900 nM
Nc1cc(Cl)c(N=C2NCCN2)c(Cl)c1 [para‐amino‐clonidine] |  |  |  | 52.0 ± 2.8 |  |  | No response |  | 2.5 ± 0.6 |  | 84.5 ± 4.9 |  | 32.8 ± 6.9 |  |  |  |  |  | No response | 33.7 ± 2.4 | cAMP accumulation (in presence of forskolin) Log EC50 (human α1B‐adrenoceptor [2]; in presence of forskolin): −7.31 ± 0.11; Intracellular calcium release Log EC50 (human α1A‐adrenoceptor [5]): −8.70 ± 0.09; Intracellular calcium release Log EC50 [6]: No response; cAMP accumulation Log EC50 (human α1B‐adrenoceptor [7]): −7.48 ± 0.43; cAMP accumulation Log EC50 (human α1A‐adrenoceptor [9]; 5 h): −6.76 ± 0.03; cAMP accumulation % forskolin (human α1A‐adrenoceptor [9]): 26.6 ± 3.2%; 3H‐prazosin binding Log KD [11]: −5.39; Log KD α1D, ^3H‐prazosin whole cell binding [11]: −5.39 ± 0.16; Log KD α1A, ^3H‐prazosin whole cell binding (human α1A‐adrenoceptor [12]): −6.23 ± 0.03; Intracellular calcium release Log EC50 (human α1B‐adrenoceptor [14]): −7.79 ± 0.05; cAMP accumulation (in presence of forskolin) Log EC50 (human α1A‐adrenoceptor [15]; 10 μM forskolin): −7.36 ± 0.05; Log KD α1B, ^3H‐prazosin whole cell binding (human α1B‐adrenoceptor [16]): −5.17 ± 0.06; Log KD, ^3H‐prazosin binding (human α1B‐adrenoceptor [16]): −5.17
